The NIST ThermoML archive (doi:10.1021/acs.jced.5b00412)

Conditions: 101.3 kPa, Liquid, Vibrating tube method

NCCCO [3-amino-1-propanol]
Conditions | mass density [kg/m3]
293.15 K | 987.5
298.15 K | 983.6
303.15 K | 979.6
308.15 K | 975.5
313.15 K | 971.5
318.15 K | 967.5
323.15 K | 963.4
328.15 K | 959.3
333.15 K | 955.8
338.15 K | 951.7
343.15 K | 947.6
348.15 K | 943.5
353.15 K | 939.3
